How the values were obtained:
[1] = test system: carrageenan edema; experiment: carrageenan edema inhibiting effect of betamethasone valerate ointments; format: in vivo, rat; conditions: Table 5, betamethasone valerate ointment with penetration enhancer
Method: An ointment was prepared from 0.15 part by weight of betamethasone valerate, 9.85 parts by weight of compound (168) and 90 parts by weight of the hydrophilic ointment.
In accordance with the method of R. Passarella et al. [Argneim. Forsch 30, (I), Nr. 4, 647-651 (1980)], the carrageenan edema inhibiting effect of the above ointment was examined. Specifically, 0.1 ml of a 1% carrageenan suspension in 0.9% NaCl solution was injected into the tip of the right leg of a rat (body weight 150-175 g). The foot volume was measured immediately after administration of carrageenan and 3, 5, and 6 hours after the administration by means of a mercury displacement device. 0.5, 1 and 2 hours after the administration of carrageenan, 100 mg of the ointment was well […] into each of the sites which underwent inflammation.
Various ointments were prepared from 0.15 part by weight of betamethasone valerate, […] of the various penetration enhancers shown in Table 5, and 85 parts by weight of the hydrophilic ointment, and tested in the same way as in Example 23.

[2] = test system: eye (cornea, iris, conjunctiva); experiment: primary eye irritation (Draize) in rabbits; format: in vivo, white native male rabbits; conditions: for Primary irritation score, Conjunctiva / Primary irritation score, Cornea / Primary irritation score, Iris / Primary irritation score, Total: average of three rabbits
Method: enhancers of this invention shown in Table 17 was applied dropwise to one eye of white native male rabbits (body weight 2.0 to 3.0 kg; 3 per group) which, it had been ascertained, were free from any trouble at the cornea, iris and conjunctiva. Nothing was applied to the other eye. Thus, irritation of the absorption aid to the mucous membrane of the eyes were examined, and scores were calculated in accordance with the Draize's eye irritation evaluating method [Association of Foods, "Drugs and Cosmetics" (1957)].
As a control, sodium laurylsulfate, a kind of surface-active agent, was evaluated in the same way, and the results are also shown in Table 17.

## CCCCCCCCCCCCCCCCCCOCC(COC(=O)[C@@H]1CCC(=O)N1)OCCCCCCCCCCCCCCCCCC (some centres unmarked) [Compound (124), 2,3-dioctadecyloxy-1-pyroglutamyloxypropane]
[1]; 3 hrs
  Percentage inhibition vs. control: 19.5%
[1]; 5 hrs
  Percentage inhibition vs. control: 37.8%
[1]; 6 hrs
  Percentage inhibition vs. control: 36.6%

## CCCCCCCCOCC(COC(=O)[C@@H]1CCC(=O)N1)OCCCCCCCC (some centres unmarked) [Compound (122), 2,3-dioctyloxy-1-pyroglutamyloxypropane]
[1]; 3 hrs
  Percentage inhibition vs. control: 20.2%
[1]; 5 hrs
  Percentage inhibition vs. control: 36.5%
[1]; 6 hrs
  Percentage inhibition vs. control: 38.3%

## CCCCCCCCCCCCOS(=O)(=O)[O-].[Na+] [Sodium Laurylsulfate, sodium laurylsulfate, reference compound]
[2]; 0.1% soln, 1 hour
  Primary irritation score, Conjunctiva: 4.0
  Primary irritation score, Cornea: 0
  Primary irritation score, Iris: 0
  Primary irritation score, Total: 4.0
[2]; 0.1% soln, 3 hours
  Primary irritation score, Conjunctiva: 4.0
  Primary irritation score, Cornea: 0
  Primary irritation score, Iris: 0
  Primary irritation score, Total: 4.0
[2]; 0.1% soln, 6 hours
  Primary irritation score, Conjunctiva: 0
  Primary irritation score, Cornea: 0
  Primary irritation score, Iris: 0
  Primary irritation score, Total: 0
[2]; 0.1% soln, 24 hours
  Primary irritation score, Conjunctiva: 0
  Primary irritation score, Cornea: 0
  Primary irritation score, Iris: 0
  Primary irritation score, Total: 0
[2]; 0.1% soln, 48 hours
  Primary irritation score, Conjunctiva: 0
  Primary irritation score, Cornea: 0
  Primary irritation score, Iris: 0
  Primary irritation score, Total: 0
[2]; 0.1% soln, 72 hours
  Primary irritation score, Conjunctiva: 0
  Primary irritation score, Cornea: 0
  Primary irritation score, Iris: 0
  Primary irritation score, Total: 0
[2]; 0.1% soln, 96 hours
  Primary irritation score, Conjunctiva: 0
  Primary irritation score, Cornea: 0
  Primary irritation score, Iris: 0
  Primary irritation score, Total: 0
[2]; 0.1% soln, 168 hours
  Primary irritation score, Conjunctiva: 0
  Primary irritation score, Cornea: 0
  Primary irritation score, Iris: 0
  Primary irritation score, Total: 0
[2]; 2.4% soln, 1 hour
  Primary irritation score, Conjunctiva: 13.3
  Primary irritation score, Cornea: 0
  Primary irritation score, Iris: 5.0
  Primary irritation score, Total: 18.3
[2]; 2.4% soln, 3 hours
  Primary irritation score, Conjunctiva: 12.7
  Primary irritation score, Cornea: 0
  Primary irritation score, Iris: 0
  Primary irritation score, Total: 12.7
[2]; 2.4% soln, 6 hours
  Primary irritation score, Conjunctiva: 11.3
  Primary irritation score, Cornea: 0
  Primary irritation score, Iris: 0
  Primary irritation score, Total: 11.3
[2]; 2.4% soln, 24 hours
  Primary irritation score, Conjunctiva: 8.0
  Primary irritation score, Cornea: 0
  Primary irritation score, Iris: 0
  Primary irritation score, Total: 8.0
[2]; 2.4% soln, 48 hours
  Primary irritation score, Conjunctiva: 4.0
  Primary irritation score, Cornea: 0
  Primary irritation score, Iris: 0
  Primary irritation score, Total: 4.0
[2]; 2.4% soln, 72 hours
  Primary irritation score, Conjunctiva: 2.7
  Primary irritation score, Cornea: 0
  Primary irritation score, Iris: 0
  Primary irritation score, Total: 2.7
[2]; 2.4% soln, 96 hours
  Primary irritation score, Conjunctiva: 2.0
  Primary irritation score, Cornea: 0
  Primary irritation score, Iris: 0
  Primary irritation score, Total: 2.0
[2]; 2.4% soln, 168 hours
  Primary irritation score, Conjunctiva: 0.7
  Primary irritation score, Cornea: 0
  Primary irritation score, Iris: 0
  Primary irritation score, Total: 0.7
[2]; rabbit, in vivo
  eye irritation (in words): fairly strong irritation

## CCCCCCOCC(O)COC(=O)[C@@H]1CCC(=O)N1 (some centres unmarked) [Compound (104), 3-hexyloxy-2-hydroxy-1-pyroglutamyloxypropane]
[1]; 3 hrs
  Percentage inhibition vs. control: 18.3%
[1]; 5 hrs
  Percentage inhibition vs. control: 35.3%
[1]; 6 hrs
  Percentage inhibition vs. control: 37.0%

## CCCCC(=O)OCC(O)COC(=O)[C@@H]1CCC(=O)N1 (some centres unmarked) [Compound (156), 2-hydroxy-3-valeryloxy-1-pyroglutamyloxypropane]
[1]; 3 hrs
  Percentage inhibition vs. control: 18.6%
[1]; 5 hrs
  Percentage inhibition vs. control: 35.1%
[1]; 6 hrs
  Percentage inhibition vs. control: 34.3%

## CC1(C)OCC(COC(=O)C2CCC(=O)N2)O1 (centres unmarked) [Compound (202), 2,3-dioxo-(dimethyl)methylene-1-pyroglutamyloxypropane]
[1]; 3 hrs
  Percentage inhibition vs. control: 17.7%
[1]; 5 hrs
  Percentage inhibition vs. control: 39.6%
[1]; 6 hrs
  Percentage inhibition vs. control: 36.1%

## CCCCCCCCCCC=CCCCCCCCCCC(=O)OCC(O)COC(=O)[C@@H]1CCC(=O)N1 (some centres unmarked) [Compound (192), 3-(11-docosenoyloxy)-2-hydroxy-1-pyroglutamyloxypropane]
[1]; 3 hrs
  Percentage inhibition vs. control: 19.5%
[1]; 5 hrs
  Percentage inhibition vs. control: 36.7%
[1]; 6 hrs
  Percentage inhibition vs. control: 30.8%

## CCCCCCCCCCCCCCCC1OCC(COC(=O)C2CCC(=O)N2)O1 (centres unmarked) [Compound (220), 2,3-dioxo-(pentadecyl)methylene-1-pyroglutamyloxypropane]
[1]; 3 hrs
  Percentage inhibition vs. control: 16.6%
[1]; 5 hrs
  Percentage inhibition vs. control: 29.7%
[1]; 6 hrs
  Percentage inhibition vs. control: 29.8%
